US10072009B2, “N-substituted beta-carbolinium compounds as potent P-glycoprotein inducers” (Council of Scientific and Industrial Research, priority 2014, dated 2018)
Where two headings read alike, the source gives them in different places. Each block holds one compound with its values, some of them ahead of it.

Legend:
[1] = tested on: P-glycoprotein; experiment: P-glycoprotein-induction assay (rhodamine123 cell exclusion method) in LS-180 cells; conditions: for % Rh123 accumulation in LS-180 cells after 48 h: control = 100; for EC50: read-out: Pgp induction EC50 value, LS180 cells treated 48 h, Rh123 fluorescence vs concentration
Experimental: P-glycoprotein-induction assay. All synthesized compounds were screened for their ability to induce P-glycoprotein by using rhodamine123 (Rh123) cell exclusion method. In this method, the P-glycoprotein function was evaluated in terms of rhodamine 123 (Rh123) accumulation and efflux. Briefly, the protocol used is as follows: Colorectal LS180 cells Colorectal LS-180 cells [obtained from ECACC (European Collection of Cell Cultures) catalogue number: 87021202; passage number 52] were seeded at a density of 2×10^4 per well of 96 well plate and were allowed to grow for next 24 h. Cells were further incubated with the test compounds, and were diluted to a final concentration of 100 nM and rifampicin (standard) to a final concentration of 10 μM in complete media for 48 h. The final concentration of DMSO was kept at 0.1%. Drugs were removed and cells were incubated with HANKS buffer for 40 minutes before further incubation with HANKS buffer (containing 10 μM of Rh123 as a P-glycoprotein substrate) for 90 minutes. At the end of Rh123 treatment cells were washed four times with cold PBS followed by cell lysis for 1 h by using 200 μl of lysis buffer (0.1% Triton X-100 and 0.2 N NaOH). A total of 100 μl of lysate was used for reading fluorescence of Rh123 at 485 nm/529 nm Samples were normalized by dividing fluorescence of each sample with total protein present in the lysate. The Pgp-induction activity was measured in terms of the % intracellular accumulation of rhodamine 123/total protein inside LS180 cells. The decrease in the % intracellular accumulation (compared to control) of Rh123 indicates induction of P-glycoprotein as shown in Table 1. Rifampicin (10 μM) was used as a reference P-glycoprotein inducer. Statistical comparisons were made between control vs compounds by using Bonferroni test. The p value <0.5 was considered to be significant.
The decrease in % intracellular accumulation (compared to control) of Rh123 indicates induction of Pgp. Rifampicin (10 μM) was used as a reference Pgp inducer.
EC50 determination in p-glycoprotein-induction assay. […] For EC50 determination, different concentrations of compound were used to treat LS180 cells for 48 h. EC50 was determined by plotting fluoroscence of Rh123 against concentration of compound.

[2] = biological target: acetylcholinesterase (AChE); conditions: read-out: AChE inhibition IC50; cited from earlier work
[3] = Thermodynamic equilibrium solubility; type: physicochemical; conditions: for solubility: 25 °C, thermodynamic from solid
Experimental: Determination of thermodynamic equilibrium solubility. The compounds were first dissolved in methanol to prepare stock solutions (100 and 1000 μg/mL) Different concentrations of stock solutions were pipetted into the 96-well plates and the solvent was evaporated to ensure that solid drug was present in the beginning of the experiment. […] The plates were kept overnight for equilibration of drug in medium. Later, the plates were centrifuged at 3000 rpm for 15 min (Jouan centrifuge BR4i). Supernatant (50 μl) was pipetted into UV 96-well plates (Corning® 96 Well Clear Flat Bottom UV-Transparent Microplate) for analyses with plate reader (SpectraMax Plus384) at λmax of 350 nm. The analyses were performed in triplicate for each compound. The solubility curve of concentration (μg/mL) vs absorbance was plotted to find out saturation point and the corresponding concentration was noted. The solubility of fascaplysin (1) and compounds 6 and 11 was determined.

[4] = tested on: mouse leukemia cells L-1210; conditions: read-out: ED50, suppression of proliferation of L-1210 cells; cited from earlier work
[5] = compounds at 5 μM (table footnote), decrease indicates Pgp induction

Compound: 6-chloro-fascaplysin [Compound 5]
% Rh123 accumulation in LS-180 cells after 48 h [1, 5]: 59.2 ± 6.7 %

Compound: O=C1c2ccccc2-[n+]2ccc3c([nH]c4ccccc43)c21.[Cl-] [Compound 1, Fascaplysin]
IC50 [2]: 1490 nM
EC50 [1]: 2.8 nM
solubility ([3]; aqueous buffer, phosphate buffer saline, read-out: Solubility in PBS): > 1500 µg/mL
solubility ([3]; simulated gastric fluid, simulated gastric fluid, read-out: Solubility in SGF): > 1500 µg/mL
solubility ([3]; simulated intestinal fluid, read-out: Solubility in SIF): > 1500 µg/mL
solubility ([3]; water, water, 25±1° C., thermodynamic equilibrium, read-out: Solubility in Water): > 800 µg/mL
Solubility in Water ([3]; water, 25±1° C., thermodynamic equilibrium): >1500 µg/mL
EC50 [4]: 200 nM

Compound: O=C1c2ccc(Cl)cc2-[n+]2ccc3c([nH]c4ccccc43)c21 [Compound 2, 4-chloro-fascaplysin]
% Rh123 accumulation in LS-180 cells after 48 h [1, 5]: 57.1 ± 9.2 %

Compound: O=C1c2cc(F)c(Cl)cc2-[n+]2ccc3c([nH]c4ccccc43)c21 [Compound 3, 4-chloro-5-fluoro-fascaplysin]
% Rh123 accumulation in LS-180 cells after 48 h [1, 5]: 55.5 ± 6.9 %

Compound: O=C1c2ccc(Cl)c(Cl)c2-[n+]2ccc3c([nH]c4ccccc43)c21 [Compound 4, 3,4-dichloro-fascaplysin]
% Rh123 accumulation in LS-180 cells after 48 h [1, 5]: 57.8 ± 8.3 %

EC50 [1]: 2 nM
Solubility in Water [3]: >1500 µg/mL
solubility ([3]; aqueous buffer, Solubility in PBS): 80 µg/mL
solubility ([3]; fassgf or other biorelevant, Solubility in SIF): < 5 µg/mL
solubility ([3]; simulated gastric fluid, Solubility in SGF): 80 µg/mL
solubility ([3]; water, Solubility in Water): > 800 µg/mL
Compound: O=C1c2cc(F)c(F)cc2-[n+]2ccc3c([nH]c4ccccc43)c21 [Compound 6, 4,5-difluoro-fascaplysin]
% Rh123 accumulation in LS-180 cells after 48 h [1, 5]: 49.6 ± 1.2 %

Compound: O=C1c2cc(Cl)ccc2-[n+]2ccc3c([nH]c4ccccc43)c21 [Compound 7, 5-chloro-fascaplysin]
% Rh123 accumulation in LS-180 cells after 48 h [1, 5]: 58.7 ± 7.8 %

Compound: Cn1c2ccccc2c2cc[n+](C)c(C(=O)c3ccccc3)c21 [Compound 8, 1-benzoyl-9,N-dimethyl beta-carbolinium iodide]
% Rh123 accumulation in LS-180 cells after 48 h [1, 5]: 75.2 ± 9.1 %

Compound: Cn1c2ccccc2c2cc[n+](C)c(C(=O)c3ccccc3Cl)c21 [Compound 9, 1-(2-chloro-benzoyl)-9, N,N-dimethyl beta-carbolinium iodide]
% Rh123 accumulation in LS-180 cells after 48 h [1, 5]: 71.4 ± 8.4 %

Compound: Cn1c2ccccc2c2cc[n+](C)c(C(=O)c3c[nH]c4ccccc34)c21 [Compound 10, 1-(3-indoloyl)-9,N-dimethyl beta-carbolinium iodide]
% Rh123 accumulation in LS-180 cells after 48 h [1, 5]: 77.6 ± 7.6 %

EC50 [1]: 3 nM
Solubility in Water [3]: 800 µg/mL
solubility ([3]; water, Solubility in Water): > 800 µg/mL
Compound: Cn1c2ccccc2c2cc[n+](C)c(C(=O)c3ccccc3Br)c21 [Compound 11, 1-(2-bromo-benzoyl)-9,N-dimethyl beta-carbolinium iodide]
% Rh123 accumulation in LS-180 cells after 48 h [1, 5]: 70.1 ± 6.7 %

Compound: Cn1c2ccccc2c2cc[n+](C)c(C(=O)c3ccc(C(F)(F)F)cc3)c21 [Compound 12, 1-(4-trifluoromethyl-benzoyl)-9,N-dimethyl beta-carbolinium iodide]
% Rh123 accumulation in LS-180 cells after 48 h [1, 5]: 78.5 ± 5.8 %

Compound: Cn1c2ccccc2c2cc[n+](C)c(C(=O)c3ccccc3F)c21 [Compound 13, 1-(2-fluoro-benzoyl)-9,N-dimethyl beta-carbolinium iodide]
% Rh123 accumulation in LS-180 cells after 48 h [1, 5]: 79.0 ± 6.0 %

Compound: CO[C@H]1/C=C/O[C@@]2(C)Oc3c(C)c(O)c4c(O)c(c(/C=N/N5CCN(C)CC5)c(O)c4c3C2=O)NC(=O)/C(C)=C\C=C\[C@H](C)[C@H](O)[C@@H](C)[C@@H](O)[C@@H](C)[C@H](OC(C)=O)[C@@H]1C [Rifampicin, reference compound]
% Rh123 accumulation in LS-180 cells after 48 h ([1]; rifampicin 10 μM, reference Pgp inducer): 67.1 ± 4.6 %
